Measured values from patent US10167262B2, “Herbicidal substituted 3-arylpyrazoles” (FMC CORPORATION, priority 2014, dated 2019).

Assays:
Assay type in all cases: in vivo
[1] = system: velvetleaf (Abutilon theophrasti); assay: Test A pre-/postemergence greenhouse herbicide test, visual injury rating 0-100
Text: (§1) Seeds of plant species selected from barnyardgrass (Echinochloa crus-galli), large (Lg) crabgrass (Digitaria sanguinalis), giant foxtail (Setaria faberii), morningglory (Ipomoea spp.), pigweed (Amaranthus retroflexus), velvetleaf (Abutilon theophrasti), wheat (Triticum aestivum), and corn (Zea mays) were planted into a blend of loam soil and sand and treated preemergence with a directed soil spray using test chemicals formulated in a non-phytotoxic solvent mixture which included a surfactant. At the same time these species were also treated with postemergence applications of test chemicals formulated in the same manner. Plants ranged in height from 2 to 10 cm and were in the one- to two-leaf stage for the postemergence treatment. Treated plants and untreated controls were maintained in a greenhouse for approximately 10 days, after which time all treated plants were compared to untreated controls and visually evaluated for injury. Plant response ratings, summarized in Table A, are based on a 0 to 100 scale where 0 is no effect and 100 is complete control. A dash (-) response means no test result.

[2] = system: giant foxtail (Setaria faberii); assay: as above
Text: as §1

[3] = system: morningglory (Ipomoea spp.); assay: as above
Text: as §1

[4] = system: wheat (Triticum aestivum); assay: as above
Text: as §1

[5] = system: pigweed (Amaranthus retroflexus); assay: as above
Text: as §1

[6] = system: barnyardgrass (Echinochloa crus-galli); assay: as above
Text: as §1

[7] = system: large (Lg) crabgrass (Digitaria sanguinalis); assay: as above
Text: as §1

corn (Zea mays) = assay: as above
Text: as §1

[8] = system: sedge, umbrella (small-flower umbrella sedge, Cyperus difformis); assay: Test B flooded paddy test, plant response rating 0-100; conditions: Flood, 250 g ai/ha; scale 0 to 100 (0 no effect, 100 complete control); 13 to 15 days
Text: (§2) At time of treatment, test pots were flooded to 3 cm above the soil surface, treated by application of test compounds directly to the paddy water, and then maintained at that water depth for the duration of the test. Treated plants and controls were maintained in a greenhouse for 13 to 15 days, after which time all species were compared to controls and visually evaluated. […] A dash (-) response means no test result.

rice (Oryza sativa) = assay: as above; conditions: Flood, 250 g ai/ha; scale 0 to 100 (0 no effect, 100 complete control); 13 to 15 days
Text: as §2

[9] = system: ducksalad (Heteranthera limosa); assay: as above; conditions: Flood, 250 g ai/ha; scale 0 to 100 (0 no effect, 100 complete control); 13 to 15 days
Text: as §2

[10] = system: barnyardgrass (Echinochloa crus-galli); assay: as above; conditions: Flood, 250 g ai/ha; scale 0 to 100 (0 no effect, 100 complete control); 13 to 15 days
Text: as §2

O=C(c1ccccc1)c1cn(C(=O)Cc2ccccc2)nc1-c1cc(Cl)cc(Cl)c1 [Compound 4]
0: Plant response rating (0 to 100 scale), Foxtail, Giant ([2]; Postemergence, 125 g ai/ha) | Foxtail, Giant plant response rating (0 = no effect, 100 = complete control) ([2]; Preemergence, 125 g ai/ha) | Plant response rating (0 to 100 scale), Morningglory ([3]; Postemergence, 125 g ai/ha) | Plant response rating (0 to 100 scale), Morningglory ([3]; Postemergence, 500 g ai/ha) | Morningglory plant response rating (0 = no effect, 100 = complete control) ([3]; Preemergence, 125 g ai/ha) | Plant response rating (0 to 100 scale), Morningglory ([3]; Preemergence, 500 g ai/ha) | Plant response rating (0 to 100 scale), Wheat ([4]; Postemergence, 125 g ai/ha) | Plant response rating (0 to 100 scale), Wheat ([4]; Postemergence, 500 g ai/ha) | Wheat plant response rating (0 = no effect, 100 = complete control) ([4]; Preemergence, 125 g ai/ha) | Plant response rating (0 to 100 scale), Wheat ([4]; Preemergence, 500 g ai/ha) | Plant response rating (0 to 100 scale), Barnyardgrass ([6]; Postemergence, 125 g ai/ha) | Plant response rating (0 to 100 scale), Barnyardgrass ([6]; Postemergence, 500 g ai/ha) | Barnyardgrass plant response rating (0 = no effect, 100 = complete control) ([6]; Preemergence, 125 g ai/ha) | Plant response rating (0 to 100 scale), Barnyardgrass ([6]; Preemergence, 500 g ai/ha) | Plant response rating (0 to 100 scale), Crabgrass, Large ([7]; Postemergence, 125 g ai/ha) | Plant response rating (0 to 100 scale), Crabgrass, Large ([7]; Postemergence, 500 g ai/ha) | Crabgrass, Large plant response rating (0 = no effect, 100 = complete control) ([7]; Preemergence, 125 g ai/ha) | Plant response rating (0 to 100 scale), Corn (corn (Zea mays); Postemergence, 125 g ai/ha) | Plant response rating (0 to 100 scale), Corn (corn (Zea mays); Postemergence, 500 g ai/ha) | Corn plant response rating (0 = no effect, 100 = complete control) (corn (Zea mays); Preemergence, 125 g ai/ha) | Plant response rating (0 to 100 scale), Corn (corn (Zea mays); Preemergence, 500 g ai/ha) | Plant response rating, Sedge, Umbrella [8] | Plant response rating, Rice (rice (Oryza sativa)) | Plant response rating, Ducksalad [9] | Plant response rating, Barnyardgrass [10]
10: Plant response rating (0 to 100 scale), Foxtail, Giant ([2]; Postemergence, 500 g ai/ha)
30: Plant response rating (0 to 100 scale), Foxtail, Giant ([2]; Preemergence, 500 g ai/ha)
20: Plant response rating (0 to 100 scale), Crabgrass, Large ([7]; Preemergence, 500 g ai/ha)
80: Plant response rating (0 to 100 scale), Velvetleaf ([1]; Postemergence, 125 g ai/ha) | Plant response rating (0 to 100 scale), Pigweed ([5]; Postemergence, 500 g ai/ha) | Pigweed plant response rating (0 = no effect, 100 = complete control) ([5]; Preemergence, 125 g ai/ha)
90: Plant response rating (0 to 100 scale), Velvetleaf ([1]; Postemergence, 500 g ai/ha) | Plant response rating (0 to 100 scale), Velvetleaf ([1]; Preemergence, 500 g ai/ha) | Plant response rating (0 to 100 scale), Pigweed ([5]; Preemergence, 500 g ai/ha)
70: Velvetleaf plant response rating (0 = no effect, 100 = complete control) ([1]; Preemergence, 125 g ai/ha) | Plant response rating (0 to 100 scale), Pigweed ([5]; Postemergence, 125 g ai/ha)

Cn1cc(C(=O)c2ccccc2)c(-c2cc(Cl)c(Cl)c(Cl)c2)n1 [Compound 11]
90: Plant response rating (0 to 100 scale), Pigweed ([5]; Postemergence, 1000 g ai/ha) | Plant response rating (0 to 100 scale), Pigweed ([5]; Preemergence, 1000 g ai/ha)
70: Plant response rating (0 to 100 scale), Velvetleaf ([1]; Preemergence, 1000 g ai/ha)
0: Plant response rating (0 to 100 scale), Foxtail, Giant ([2]; Postemergence, 1000 g ai/ha) | Plant response rating (0 to 100 scale), Foxtail, Giant ([2]; Preemergence, 1000 g ai/ha) | Plant response rating (0 to 100 scale), Morningglory ([3]; Postemergence, 1000 g ai/ha) | Plant response rating (0 to 100 scale), Morningglory ([3]; Preemergence, 1000 g ai/ha) | Plant response rating (0 to 100 scale), Wheat ([4]; Postemergence, 1000 g ai/ha) | Plant response rating (0 to 100 scale), Wheat ([4]; Preemergence, 1000 g ai/ha) | Plant response rating (0 to 100 scale), Barnyardgrass ([6]; Postemergence, 1000 g ai/ha) | Plant response rating (0 to 100 scale), Barnyardgrass ([6]; Preemergence, 1000 g ai/ha) | Plant response rating (0 to 100 scale), Crabgrass, Large ([7]; Postemergence, 1000 g ai/ha) | Plant response rating (0 to 100 scale), Crabgrass, Large ([7]; Preemergence, 1000 g ai/ha) | Plant response rating (0 to 100 scale), Corn (corn (Zea mays); Postemergence, 1000 g ai/ha) | Plant response rating (0 to 100 scale), Corn (corn (Zea mays); Preemergence, 1000 g ai/ha) | Plant response rating, Sedge, Umbrella [8] | Plant response rating, Rice (rice (Oryza sativa)) | Plant response rating, Ducksalad [9]
80: Plant response rating (0 to 100 scale), Velvetleaf ([1]; Postemergence, 1000 g ai/ha)

CCn1cc(C(=O)c2ccccc2)c(-c2cc(Cl)c(Cl)c(Cl)c2)n1 [Compound 12]
80: Plant response rating (0 to 100 scale), Velvetleaf ([1]; Postemergence, 1000 g ai/ha) | Plant response rating (0 to 100 scale), Pigweed ([5]; Preemergence, 1000 g ai/ha)
90: Plant response rating (0 to 100 scale), Pigweed ([5]; Postemergence, 1000 g ai/ha)
0: Plant response rating (0 to 100 scale), Foxtail, Giant ([2]; Postemergence, 1000 g ai/ha) | Plant response rating (0 to 100 scale), Foxtail, Giant ([2]; Preemergence, 1000 g ai/ha) | Plant response rating (0 to 100 scale), Morningglory ([3]; Postemergence, 1000 g ai/ha) | Plant response rating (0 to 100 scale), Morningglory ([3]; Preemergence, 1000 g ai/ha) | Plant response rating (0 to 100 scale), Wheat ([4]; Postemergence, 1000 g ai/ha) | Plant response rating (0 to 100 scale), Wheat ([4]; Preemergence, 1000 g ai/ha) | Plant response rating (0 to 100 scale), Barnyardgrass ([6]; Postemergence, 1000 g ai/ha) | Plant response rating (0 to 100 scale), Barnyardgrass ([6]; Preemergence, 1000 g ai/ha) | Plant response rating (0 to 100 scale), Crabgrass, Large ([7]; Postemergence, 1000 g ai/ha) | Plant response rating (0 to 100 scale), Crabgrass, Large ([7]; Preemergence, 1000 g ai/ha) | Plant response rating (0 to 100 scale), Corn (corn (Zea mays); Postemergence, 1000 g ai/ha) | Plant response rating (0 to 100 scale), Corn (corn (Zea mays); Preemergence, 1000 g ai/ha) | Plant response rating, Rice (rice (Oryza sativa))
70: Plant response rating (0 to 100 scale), Velvetleaf ([1]; Preemergence, 1000 g ai/ha) | Plant response rating, Sedge, Umbrella [8]
20: Plant response rating, Ducksalad [9]
